What was measured:
Type in all cases: in vivo
[1] = tested on: common cocklebur (Xanthium strumarium L.); test: Preemergence herbicidal activity, cocklebur; conditions: Rate of Application 0.3 Kg/Ha, examined after 12-17 days
[2] = tested on: velvetleaf (Abutilon theophrasti); test: Postemergence herbicidal activity, velvetleaf; conditions: rate of application 0.3 Kg/Ha, rated after 12-17 days
[3] = tested on: green foxtail (Setaria viridis); test: Postemergence herbicidal activity, green foxtail; conditions: rate of application 0.3 Kg/Ha, rated after 12-17 days
[4] = tested on: blackgrass (Aloepecurus myosuroides); test: Postemergence herbicidal activity, blackgrass; conditions: rate of application 0.3 Kg/Ha, rated after 12-17 days
Protocol: The benzofused heterocyclic compounds of this invention were tested for pre- and postemergence herbicidal activity using a variety of crops and weeds. The test plants included soybean (Glycine max var. Winchester), field corn (Zea mays var. Pioneer 3732), wheat (Triticum aestivum var. Lew), morningglory (Ipomea lacunosa or Ipomea hederacea), velvetleaf (Abutilon theophrasti), green foxtail (Setaria viridis), Johnsongrass (Sorghum halepense), blackgrass (Aloepecurus myosuroides), common chickweed (Stellaria media), and common cocklebur (Xanthium strumarium L.).
For preemergence testing, two disposable fiber flats (8 cm×15 cm×25 cm) for each rate of application of each candidate herbicide were filled to an approximate depth of 6.5 cm with steam-sterilized sandy loam soil. The soil was leveled and impressed with a template to provide five evenly spaced furrows 13 cm long and 0.5 cm deep in each flat. Seeds of soybean, wheat, corn, green foxtail, and johnsongrass were planted in the furrows of the first flat, and seeds of velvetleaf, morningglory, common chickweed, cocklebur, and blackgrass were planted in the furrows of the second flat. The five-row template was employed to firmly press the seeds into place. A topping soil of equal portions of sand and sandy loam soil was placed uniformly on top of each flat to a depth of approximately 0.5 cm. Flats for postemergence testing were prepared in the same manner except that they were planted 9-14 days prior to the preemergence flats and were placed in a greenhouse and watered, thus allowing the seeds to germinate and the foliage to develop.
In both pre- and postemergence tests, a stock solution of the candidate herbicide was prepared by dissolving 0.27 g of the compound in 20 mL of water/acetone (50/50) containing 0.5% v/v sorbitan monolaurate. For an application rate of 3000 g/ha of herbicide a 10 mL portion of the stock solution was diluted with water/acetone (50/50) to 45 mL.
The preemergence flats were initially subjected to a light water spray. The four flats were placed two by two along a conveyor belt (i.e., the two preemergence followed by the two postemergence flats). The conveyor belt fed under a spray nozzle mounted about ten inches above the post-emergent foliage. The preemergent flats were elevated on the belt so that the soil surface was at the same level below the spray nozzle as the foliage canopy of the postemergent plants. The spray of herbicidal solution was commenced and once stabilized, the flats were passed under the spray at a speed to receive a coverage equivalent of 100 L/ha. At this coverage the application rates are those shown in the above table for the individual herbicidal solutions. The preemergence flats were watered immediately thereafter, placed in the greenhouse and watered regularly at the soil surface. The postemergence flats were immediately placed in the green-house and not watered until 24 hours after treatment with the test solution. Thereafter they were regularly watered at ground level. After 12-17 days the plants were examined and the phytotoxicity data were recorded.
Phytotoxicity data were taken as percent control. Percent control was determined by a method similar to the 0 to 100 rating system disclosed in “Research Methods in Weed Science,” 2nd ed., B. Truelove, Ed.; Southern Weed Science Society; Auburn University, Auburn, Ala., 1977.

[5] = tested on: field corn (Zea mays var. Pioneer 3732); test: Preemergence herbicidal activity, corn; conditions: Rate of Application 0.3 Kg/Ha, examined after 12-17 days
[6] = tested on: Johnsongrass (Sorghum halepense); test: Preemergence herbicidal activity, johnsongrass; conditions: Rate of Application 0.3 Kg/Ha, examined after 12-17 days
[7] = tested on: morningglory (Ipomea lacunosa or Ipomea hederacea); test: Preemergence herbicidal activity, morningglory; conditions: Rate of Application 0.3 Kg/Ha, examined after 12-17 days
[8] = tested on: velvetleaf (Abutilon theophrasti); test: Preemergence herbicidal activity, velvetleaf; conditions: Rate of Application 0.3 Kg/Ha, examined after 12-17 days
[9] = tested on: morningglory (Ipomea lacunosa or Ipomea hederacea); test: Postemergence herbicidal activity, morningglory; conditions: rate of application 0.3 Kg/Ha, rated after 12-17 days
[10] = tested on: common cocklebur (Xanthium strumarium L.); test: Postemergence herbicidal activity, cocklebur; conditions: rate of application 0.3 Kg/Ha, rated after 12-17 days
[11] = tested on: wheat (Triticum aestivum var. Lew); test: Postemergence herbicidal activity, wheat; conditions: rate of application 0.3 Kg/Ha, rated after 12-17 days
[12] = tested on: Johnsongrass (Sorghum halepense); test: Postemergence herbicidal activity, johnsongrass; conditions: rate of application 0.3 Kg/Ha, rated after 12-17 days
[13] = tested on: wheat (Triticum aestivum var. Lew); test: Preemergence herbicidal activity, wheat; conditions: Rate of Application 0.3 Kg/Ha, examined after 12-17 days
[14] = tested on: green foxtail (Setaria viridis); test: Preemergence herbicidal activity, green foxtail; conditions: Rate of Application 0.3 Kg/Ha, examined after 12-17 days
[15] = tested on: soybean (Glycine max var. Winchester); test: Preemergence herbicidal activity, soybean; conditions: Rate of Application 0.3 Kg/Ha, examined after 12-17 days
[16] = tested on: field corn (Zea mays var. Pioneer 3732); test: Postemergence herbicidal activity, corn; conditions: rate of application 0.3 Kg/Ha, rated after 12-17 days
[17] = tested on: blackgrass (Aloepecurus myosuroides); test: Preemergence herbicidal activity, blackgrass; conditions: Rate of Application 0.3 Kg/Ha, examined after 12-17 days
[18] = tested on: soybean (Glycine max var. Winchester); test: Postemergence herbicidal activity, soybean; conditions: rate of application 0.3 Kg/Ha, rated after 12-17 days

Row | Compound | PREEMERGENCE HERBICIDAL ACTIVITY (% CONTROL) XANPE [1] [%] | Postemergence herbicidal activity (% control) ABUTH [2] [%] | Postemergence herbicidal activity (% control) SETVI [3] [%] | Postemergence herbicidal activity (% control) ALOMY [4] [%] | PREEMERGENCE HERBICIDAL ACTIVITY (% CONTROL) CRN [5] [%] | PREEMERGENCE HERBICIDAL ACTIVITY (% CONTROL) SORHA [6] [%] | PREEMERGENCE HERBICIDAL ACTIVITY (% CONTROL) IPOSS [7] [%] | PREEMERGENCE HERBICIDAL ACTIVITY (% CONTROL) ABUTH [8] [%] | Postemergence herbicidal activity (% control) IPOSS [9] [%] | Postemergence herbicidal activity (% control) XANPE [10] [%] | Postemergence herbicidal activity (% control) WHT [11] [%] | Postemergence herbicidal activity (% control) SORHA [12] [%] | PREEMERGENCE HERBICIDAL ACTIVITY (% CONTROL) WHT [13] [%] | PREEMERGENCE HERBICIDAL ACTIVITY (% CONTROL) SETVI [14] [%] | PREEMERGENCE HERBICIDAL ACTIVITY (% CONTROL) SOY [15] [%] | Postemergence herbicidal activity (% control) CRN [16] [%] | PREEMERGENCE HERBICIDAL ACTIVITY (% CONTROL) ALOMY [17] [%] | Postemergence herbicidal activity (% control) SOY [18] [%]
1 | CC(=O)OC(c1ccccc1)c1nc2c(-n3c(=O)cc(C(F)(F)F)n(C)c3=O)c(F)cc(Br)c2o1 (stereo not drawn) [Compound 103] | 70 | 100 | 100 | 70 | 80 | 70 | 100 | 100 | 80 | 80 | 50 | 60 | 50 | 100 | 50 | 80 | 90 | 90
2 | CC(c1ccccc1)c1nc2c(Cl)cc(F)c(-n3c(=O)cc(C(F)(F)F)n(C)c3=O)c2[nH]1 (stereo not drawn) [Compound 377] | 100 | 100 | 100 | 100 | 90 | 100 | 100 | 100 | 100 | 100 | 80 | 100 | 70 | 100 | 100 | 100 | 100 | 95
3 | Cn1c(C(F)(F)F)cc(=O)n(-c2c(F)cc(Cl)c3nc(CCc4ccccc4)[nH]c23)c1=O [Compound 379] | 100 | 100 | 100 | 70 | 70 | 95 | 100 | 100 | 100 | 100 | 80 | 100 | 50 | 100 | 100 | 100 | 80 | 95
4 | Cn1c(C(F)(F)F)cc(=O)n(-c2c(F)cc(Cl)c3nc(CCCc4ccccc4)[nH]c23)c1=O [Compound 380] | 80 | 100 | 100 | 70 | 20 | 70 | 100 | 100 | 100 | 100 | 30 | 80 | 35 | 100 | 80 | 95 | 90 | 95
5 | Cn1c(C(F)(F)F)cc(=O)n(-c2c(F)cc(Cl)c3nc(Cc4ccccc4Cl)[nH]c23)c1=O [Compound 381] | 100 | 100 | 100 | 100 | 80 | 80 | 100 | 100 | 100 | 100 | 40 | 100 | 40 | 100 | 100 | 95 | 90 | 95
